# Earlier results as cited in patent US20180373846A1, “METHODS AND SYSTEMS FOR ORGANIC SOLUTE SAMPLING OF AQUEOUS AND HETEROGENEOUS ENVIRONMENTS” (University of Maryland, Baltimore, priority 2014, published 2018).
# Columns and labels:
# [1] = experimental hydration free energy
# [2] = Table 2, reference 31
# T4-L99A = T4-L99A (Enterobacteria phage T4, UniProt P00720, L99A)
# β2AR = β2AR (Homo sapiens, UniProt P07550); details: experimental, from cited references
ΔGbind (β2AR),Compound,HFE^exp [1],HFE^fep [2],experimental binding affinity (T4-L99A)
,"CC=O [Acetaldehyde, acetaldehyde]",-3.5 kcal/mol,-4.43 kcal/mol,
,CC(=O)O [Acetate],-79.1 kcal/mol,-96.5 kcal/mol,
,"c1ccccc1 [Benzene, benzene]",-0.83 kcal/mol,-0.71 kcal/mol,-5.19 ± 0.16 kcal/mol
,"NC=O [Formamide, formamide]",-14 kcal/mol,-10.71 kcal/mol,
,"c1c[nH]cn1 [Imidazole, imidazole]",,-12.55 kcal/mol,
,"CO [Methanol, methanol]",-5.1 kcal/mol,-6.16 kcal/mol,
,"CN [Methylammonium, methylammonium]",-71.3 kcal/mol,-52.0 kcal/mol,
−12.23,Nc1c(Cl)cc([C@@H](O)CNCCCCCCOCCc2ccccn2)cc1Cl [Picumeterol],,,
,"CCC [Propane, propane]",1.96 kcal/mol,1.60 kcal/mol,
,"O [Water, water]",-5.6 kcal/mol,,
−9.72,Hydroxybenzyl isoproterenol,,,

Compound,ΔGbind (β2AR),HFE^exp [1],HFE^fep [2],experimental binding affinity (T4-L99A)
CC(C)NCC(O)COc1cccc2[nH]ccc12 (centres unmarked) [Pindolol],−12.43,,,
